Key:
[1] = Salt spray test DIN 50 021 SS, 168 hours, of acrylic dispersion coating (Maincote HG-54) with corrosion inhibitor; corrosion protection factor CPF; settings: salt spray 168 hours, coat thickness 50 to 55 μm; for CPF film / CPF metal: 1% inhibitor on overall solids content, maximum 6 points, greater = better; for CPF: 1% inhibitor, sum of film and metal, maximum 12 points
Protocol: (§1) In order to prepare the coating formulation (acrylic dispersion based on Maincote HG-54), components 1 to 8 (formulation without amine salt) and components 1 to 9 (formulation comprising an amine salt) are employed in the sequence stated (see Table 1).
(§2) Components 1 to 8 or 1 to 9 are dispersed using a high-speed stirrer at 3000 revolutions/minute to a degree of ground fineness or ground particulate nature of <15 μm. The outcome of dispersing the pigment paste thus obtained is assessed by determining the grindometer value (ISO 1524).The amount of the novel salts employed is based on the overall solids content of the formulation without salt (overall solids content 47%). Accordingly, an addition of, say, 1.0% of amine salt to 100 g of dispersion denotes, for example, an amount of 0.47 g. To complete the coating formulation, components 10 to 16 of Table 1 are added at a reduced stirring speed (1000 revolutions/minute) in the stated sequence. Subsequently, the pH of the formulation is checked and, if appropriate, is adjusted prior to application to a value of from 8 to 8.5 using ammonia solution (25% strength).
(§3) The coating formulations are applied to steel panels (19×10.5 cm) of the Bonder type (cold-rolled degreased steel; manufactured by Chemetall, Frankfurt am Main/Germany) in a coat thickness which after drying amounts to 50-55 μm. Drying conditions: 10 days at room temperature.
(§4) Prior to the beginning of weathering, the “coating films” undergo defined damage in the form of a parallel cut (i.e. parallel to the longest panel edge) using a Bonder cross-cut instrument (Mod. 205; manufactured and sold by Lau, 5870 Hemer/Germany). The panel edges are protected by applying an edge protector (Icosit® 255; manufactured by Inertol AG, Winterthur/Switzerland).
(§5) The samples are subsequently subjected to accelerated weathering in a salt spray test in accordance with DIN 50 021 SS for 168 hours (Table 2) or to a humidity test in accordance with ASTM D 4585-87 for 330 hours (Table 3). The assessment of the results is based on the relevant DIN standards in accordance with an evaluation key, by the indication of a corrosion protection value CPF (Corrosion Protection Factor). The CPF is an additive term composed of an assessment of the coating (film) and an assessment of visible underfilm corrosion and appearance of the metal surface, and has a maximum of 12 points. The individual maximum values are 6 points each. The greater the CPF, the better the protection against corrosion.

[2] = Subfilm migration in the wet state (cathodic delamination) along the artificial damage, DIN 53 167, after the salt spray test; settings: 1% inhibitor; after salt spray 168 hours; coat thickness 50 to 55 μm; lesser = more effective
Source text: as §3, §4
(§6) As additional assessment criteria, the “subfilm migration in the wet state” (cathodic delamination) along the artificial damage side is determined, after the end of the salt spray test, in accordance with DIN 53 167. […] After the end of the humidity test, the wet adhesion of the coating formulation is determined in accordance with DIN 53 151 by making a crosshatch cut followed by the tape tearoff test. According to DIN 53 151 (scale from Gt 0 to Gt 5) a crosshatch value of Gt 0 corresponds to completely intact adhesion of the coating film, whereas Gt 5 corresponds to inadequate adhesion.

[3] = Humidity test ASTM D 4585-87, 330 hours, of acrylic dispersion coating (Maincote HG-54) with corrosion inhibitor; corrosion protection factor CPF; settings: humidity test 330 hours, coat thickness 45 to 50 μm; for CPF film / CPF metal: maximum 6 points, greater = better; for CPF: sum of film and metal, maximum 12 points
Protocol: as §1, §2
[…] Drying conditions: 10 days at room temperature.
as §4, §5

[4] = Wet adhesion of the coating formulation, DIN 53 151 crosshatch cut and tape tearoff test, after the humidity test; settings: after humidity test 330 hours, scale Gt 0 (completely intact adhesion) to Gt 5 (inadequate adhesion)
Protocol: as §3, §6

[5] = 1% inhibitor on overall solids content
[6] = 2% inhibitor on overall solids content

| Compound | CPF film [1] | CPF metal [1] | CPF [1] | Cathodic delamination (mm total) [2] [mm] | CPF film [3, 5] | CPF metal [3, 5] | CPF ([3]; 1% inhibitor) | CPF film [3, 6] | CPF metal [3, 6] | CPF ([3]; 2% inhibitor) | Wet adhesion (Gt value) ([4]; 1% inhibitor) [Gt] | Wet adhesion (Gt value) ([4]; 2% inhibitor) [Gt] |
| --- | --- | --- | --- | --- | --- | --- | --- | --- | --- | --- | --- | --- |
| CCCCCCCCCCCCN(CP(=O)(O)O)CP(=O)(O)O.CCN1CCOCC1.CCN1CCOCC1 [Example 7, n-Dodecylaminobismethylenephosphonic Acid, Salt with Two Equivalents of N-ethylmorpholine] | 5.4 | 5.6 | 11.0 | 16 | 5.2 | 3.0 | 8.2 | 6.0 | 4.5 | 10.5 | 0 | 0 |
| CCCCCCCCCCCCN(CP(=O)(O)O)CP(=O)(O)O.OCCN(CCO)CCO.OCCN(CCO)CCO [Example 16, n-Dodecylaminobismethylenephosphonic Acid, Salt with Two Equivalents of Triethanolamine] | 4.8 | 4.4 | 9.2 | 16 | – | – | – | 4.8 | 3.6 | 8.4 | – | 0 |
| CCCCCCCCN(CCCCCCCC)CP(=O)(O)O.CCN1CCOCC1.CCN1CCOCC1 [Example 3, Dioctylaminomethylenephosphonic Acid, Salt with Two Equivalents of N-ethylmorpholine] | 4.0 | 4.0 | 8.0 | 16 | – | – | – | – | – | – | – | – |
| CCCCC(CC)CN(CP(=O)(O)O)CP(=O)(O)O.CCN1CCOCC1.CCN1CCOCC1 (stereo not drawn) [Example 4, 2-Ethylhexylaminobismethylenephosphonic Acid, Salt with Two Equivalents N-ethylmorpholine] | 5.0 | 5.0 | 10.0 | 22 | 4.0 | 2.6 | 6.6 | 5.0 | 4.8 | 9.8 | 0 | 0 |
| CCCCCCCCCCCCCCN(CP(=O)(O)O)CP(=O)(O)O.CCN1CCOCC1.CCN1CCOCC1 [Example 6, n-Tetradecylaminobismethylenephosphonic Acid, Salt with Two Equivalents of N-ethylmorpholine] | 5.4 | 5.0 | 10.2 | 18 | 4.6 | 5.0 | 9.6 | 5.2 | 4.5 | 9.7 | 0 | 0 |
| CCCCCCCCN(CP(=O)(O)O)CP(=O)(O)O.CCN1CCOCC1.CCN1CCOCC1 [Example 9, n-Octylaminobismethylenephosphonic Acid, Salt with Two Equivalents of N-ethylmorpholine] | 5.6 | 5.4 | 11.0 | 12 | 4.4 | 4.0 | 8.4 | 4.8 | 5.4 | 10.2 | 0 | 0 |
